This is an account of results in patent US20120135863A1, “COMPOSITION AND METHOD FOR PROMOTING PLANT ROOT GROWTH” (priority 2009, published 2012).

Structures are written as SMILES.

The subject of the assay is Raphanus sativus. Description: Root growth promotion test: main root length of Raphanus sativus seedlings in seed growing bag. In kind it is in vivo. The note with it: compound 2 at 3 ppm, compound I at 10 ppm, mixture 3 ppm compound 2 + 10 ppm compound I; seeds on cardboard impregnated with 17 ml solution; 25° C., 7 days; average of three repeats. On the procedure: One (1) part of each of the compound 2 and the compound I was dissolved in 99 parts of dimethyl sulfoxide and each of the resultant solutions was diluted with ion-exchange water so as to adjust the concentrations of the compound 2 and the compound I to 3 ppm and 10 ppm, respectively to thereby prepare respective test chemical solutions.
In the same manner, chemical solutions were prepared so as to adjust the concentrations of the compound 2 and the compound I to 6 ppm and 20 ppm, respectively, and then the respective chemical solutions were mixed in an equivalent amount to prepare a mixed test chemical solution containing 3 ppm of the compound 2 and 10 ppm of the compound I.
A cardboard in a seed growing bag (measuring 177 mm×163 mm, manufactured by Daiki Rika Kogyo Co., Ltd.) was impregnated with 17 ml of each of these test chemical solutions, and 3 seeds of Raphanus sativus were sown on the cardboard. The seed growing bag was placed in a plastic container, and the plastic container was sealed. After culturing in a bright place at 25° C. for 7 days, the length of main root was measured. For comparison, the test was conducted in the same manner without treating with the test chemical solution, and the length of the main root was measured. […]

In the case of `O=C(O)CCC(=O)NCCc1ccccc1` [Compound I, 4-oxo-4-[(2-phenylethyl)amino]-butyric acid], the “Relative value (main root length, non-treated control group as 100)” value was found to be 148.
